Source: US10172868B2, “Substituted quinazolines for inhibiting kinase activity” (NeuPharma, Inc., priority 2013, dated 2019)

Legend:
EGFR (ErbB1) T790M L858R = EGFR (ErbB1) T790M L858R (Homo sapiens (Human), UniProt P00533, L858R/T790M); test: Z'-LYTE kinase inhibition assay, EGFR L858R/T790M; type: biochemical; conditions: for IC50: read-out: IC50 against EGFR L858R/T790M; for inhibition at 0.0137 µM: read-out: % inhibition against EGFR L858R/T790M (Compound at 0.0137 μM); for inhibition at 1 µM: read-out: % inhibition against EGFR L858R/T790M (Compound at 1 μM)
Chain of EGFR (ErbB1) T790M L858R (P00533 25-1210 T790M/L858R): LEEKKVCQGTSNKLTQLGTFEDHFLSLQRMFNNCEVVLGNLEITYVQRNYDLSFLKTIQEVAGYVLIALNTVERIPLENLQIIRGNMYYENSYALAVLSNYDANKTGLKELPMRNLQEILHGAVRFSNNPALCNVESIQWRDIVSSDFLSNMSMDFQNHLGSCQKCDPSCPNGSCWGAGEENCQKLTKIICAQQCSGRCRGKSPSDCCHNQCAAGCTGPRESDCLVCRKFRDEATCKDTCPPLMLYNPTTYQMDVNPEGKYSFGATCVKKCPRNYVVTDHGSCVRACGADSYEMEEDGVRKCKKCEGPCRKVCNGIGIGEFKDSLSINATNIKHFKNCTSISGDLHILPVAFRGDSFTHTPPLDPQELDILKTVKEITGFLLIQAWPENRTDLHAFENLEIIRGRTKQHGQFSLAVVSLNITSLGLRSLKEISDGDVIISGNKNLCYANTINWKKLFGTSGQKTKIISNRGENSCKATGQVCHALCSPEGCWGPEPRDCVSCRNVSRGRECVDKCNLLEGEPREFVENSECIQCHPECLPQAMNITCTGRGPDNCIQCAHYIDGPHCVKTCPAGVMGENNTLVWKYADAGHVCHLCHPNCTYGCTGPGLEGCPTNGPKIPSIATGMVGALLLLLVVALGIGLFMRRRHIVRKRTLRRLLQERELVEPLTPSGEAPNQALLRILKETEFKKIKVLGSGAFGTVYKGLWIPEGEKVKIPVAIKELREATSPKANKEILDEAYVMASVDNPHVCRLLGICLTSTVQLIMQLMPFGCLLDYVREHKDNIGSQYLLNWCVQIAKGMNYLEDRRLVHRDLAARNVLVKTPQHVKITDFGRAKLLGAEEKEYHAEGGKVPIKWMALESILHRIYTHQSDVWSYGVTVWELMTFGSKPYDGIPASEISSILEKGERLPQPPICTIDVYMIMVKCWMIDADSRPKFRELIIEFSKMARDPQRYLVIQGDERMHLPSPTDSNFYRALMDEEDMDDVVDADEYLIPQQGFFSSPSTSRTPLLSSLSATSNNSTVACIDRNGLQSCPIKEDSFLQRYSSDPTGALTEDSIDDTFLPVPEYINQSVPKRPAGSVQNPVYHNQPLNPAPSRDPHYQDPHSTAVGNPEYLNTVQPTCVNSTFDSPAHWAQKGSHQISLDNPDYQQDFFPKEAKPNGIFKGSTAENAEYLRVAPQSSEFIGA
Summary of the method: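 Z'-LYTE FRET peptide assay at 1% DMSO, 10-point 3-fold titrations; kinase/peptide mix in 50 mM HEPES pH 6.5, 0.01% BRIJ-35, 10 mM MgCl2, 1 mM EGTA, 0.02% NaN3. Kinase reaction ran 60 min at room temperature, followed by 60 min development and a fluorescence read. IC50 derived from the concentration series.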

H1299 cells = test: Inhibition of cancer cell growth, MTT assay, H1299; conditions: Homo sapiens, NCI-H1299, 72 h, read-out: IC50 in H1299 cells
Description: (§1) Inhibition of cell growth by compounds was measured using MTT assay (Mosmann, T., Journal of Immunological Methods, 1983, 65, 55-63). Tumor cell lines were purchased from ATCC (American Type Culture Collection, Manassas, Va.). All cell lines were maintained in RPMI 1640 (Hyclone) supplemented with 10% fetal bovine serum (FBS, Hyclone), glutamine (2 mM, Hyclone), and antibiotics (penicillin 100 U/mL and streptomycin 50 μg/mL) at 37° C. in a humidified atmosphere of 5% CO2 in air. Taxol (as a positive control. Sigma) and compounds were dissolved in DMSO (Sigma), and the final concentration of DMSO in the medium was 1%. Tumor cells were plated in 96-well plates at densities of about 4000 cells/well of a 96-well plate and allowed to adhere/grow for 24 h. They were then treated with various concentrations of drug for 72 h, 3-(4,5-Dimethylthiazol-2-yl)-2,5-diphenyltetrazolium bromide (MTT, Sigma) was used to determine the number of viable cells at the time of compound addition and the number of cells remaining after 72 h compound exposure. The number of cells remaining after 72 h was compared to the number of viable cells at the time of compound addition by measuring the absorbance at 570 nm, allowing for the calculation of growth inhibition.
(§2) All concentrations of compounds were tested in triplicate and controls were averaged over 4 wells. IC50 was calculated by plotting the concentration of compound vs the percentage of inhibition in treated wells using GraphPad Prism 5.

EGFR (ErbB1) = EGFR (ErbB1) (Homo sapiens (Human), UniProt P00533); test: Z'-LYTE kinase inhibition assay, EGFR; type: biochemical; conditions: for inhibition at 0.041 µM: read-out: % inhibition against EGFR (Compound at 0.041 μM); for inhibition at 1 µM: read-out: % inhibition against EGFR (Compound at 1 μM); for IC50: read-out: IC50 against EGFR
Chain of EGFR (ErbB1) (P00533 25-1210): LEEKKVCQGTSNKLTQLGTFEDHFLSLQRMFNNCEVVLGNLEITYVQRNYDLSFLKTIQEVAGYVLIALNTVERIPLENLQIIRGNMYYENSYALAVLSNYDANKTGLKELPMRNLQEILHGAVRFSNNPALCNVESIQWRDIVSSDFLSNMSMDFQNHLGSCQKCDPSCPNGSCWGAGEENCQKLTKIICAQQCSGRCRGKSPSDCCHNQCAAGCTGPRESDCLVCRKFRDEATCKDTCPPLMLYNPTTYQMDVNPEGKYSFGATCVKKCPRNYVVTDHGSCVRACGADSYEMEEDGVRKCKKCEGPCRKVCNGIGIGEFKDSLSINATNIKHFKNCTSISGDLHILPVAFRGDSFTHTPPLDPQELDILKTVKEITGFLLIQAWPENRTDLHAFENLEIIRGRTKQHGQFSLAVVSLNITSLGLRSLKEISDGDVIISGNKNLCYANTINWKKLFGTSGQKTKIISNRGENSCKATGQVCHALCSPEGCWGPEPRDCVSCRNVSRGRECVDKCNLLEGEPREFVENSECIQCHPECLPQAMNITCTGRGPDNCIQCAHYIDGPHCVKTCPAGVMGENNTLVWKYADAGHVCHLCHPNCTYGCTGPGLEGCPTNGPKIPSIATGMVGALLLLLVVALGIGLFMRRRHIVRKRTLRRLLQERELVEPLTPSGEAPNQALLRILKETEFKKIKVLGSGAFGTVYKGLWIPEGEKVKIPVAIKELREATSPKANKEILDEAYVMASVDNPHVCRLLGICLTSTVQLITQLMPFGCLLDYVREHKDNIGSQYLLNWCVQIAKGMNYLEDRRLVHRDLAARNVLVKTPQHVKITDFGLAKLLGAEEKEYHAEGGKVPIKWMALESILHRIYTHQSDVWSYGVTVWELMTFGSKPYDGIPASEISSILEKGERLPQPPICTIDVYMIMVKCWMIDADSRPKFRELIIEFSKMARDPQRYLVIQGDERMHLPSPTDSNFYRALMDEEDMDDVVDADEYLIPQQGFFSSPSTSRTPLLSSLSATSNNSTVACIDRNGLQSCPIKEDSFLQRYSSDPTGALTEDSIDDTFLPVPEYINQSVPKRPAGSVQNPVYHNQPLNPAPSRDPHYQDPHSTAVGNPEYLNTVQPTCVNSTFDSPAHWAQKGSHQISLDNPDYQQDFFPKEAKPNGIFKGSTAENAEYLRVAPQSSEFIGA
Summary of the method: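 Z'-LYTE FRET assay run with 1.1-5.25 ng EGFR and 2 μM peptide substrate in 50 mM HEPES pH 7.5, 10 mM MgCl2, 2 mM MnCl2, 1 mM EGTA, 1 mM DTT, 0.01% BRIJ-35, 1% DMSO. Kinase reaction 60 min at room temperature, then 60 min development; IC50 from 10-point 3-fold titrations.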

A431 cells = test: cells; conditions: Homo sapiens, A-431, 72 h, read-out: IC50 in A431 cells
H1975 cells = test: Inhibition of cancer cell growth, MTT assay, H1975; conditions: Homo sapiens, NCI-H1975, 72 h, read-out: IC50 in H1975 cells
Description: as §1, §2

HCC827 cells = test: cells; conditions: Homo sapiens, HCC827, 72 h, read-out: IC50 in HCC827 cells
H3255 cells = test: Inhibition of cancer cell growth, MTT assay, H3255; conditions: Homo sapiens, NCI-H3255, 72 h, read-out: IC50 in H3255 cells
BTK = BTK (Homo sapiens (Human), UniProt Q06187); test: Z'-LYTE kinase inhibition assay, BTK; type: biochemical; conditions: read-out: IC50 against BTK
Chain of BTK (Q06187 whole entry): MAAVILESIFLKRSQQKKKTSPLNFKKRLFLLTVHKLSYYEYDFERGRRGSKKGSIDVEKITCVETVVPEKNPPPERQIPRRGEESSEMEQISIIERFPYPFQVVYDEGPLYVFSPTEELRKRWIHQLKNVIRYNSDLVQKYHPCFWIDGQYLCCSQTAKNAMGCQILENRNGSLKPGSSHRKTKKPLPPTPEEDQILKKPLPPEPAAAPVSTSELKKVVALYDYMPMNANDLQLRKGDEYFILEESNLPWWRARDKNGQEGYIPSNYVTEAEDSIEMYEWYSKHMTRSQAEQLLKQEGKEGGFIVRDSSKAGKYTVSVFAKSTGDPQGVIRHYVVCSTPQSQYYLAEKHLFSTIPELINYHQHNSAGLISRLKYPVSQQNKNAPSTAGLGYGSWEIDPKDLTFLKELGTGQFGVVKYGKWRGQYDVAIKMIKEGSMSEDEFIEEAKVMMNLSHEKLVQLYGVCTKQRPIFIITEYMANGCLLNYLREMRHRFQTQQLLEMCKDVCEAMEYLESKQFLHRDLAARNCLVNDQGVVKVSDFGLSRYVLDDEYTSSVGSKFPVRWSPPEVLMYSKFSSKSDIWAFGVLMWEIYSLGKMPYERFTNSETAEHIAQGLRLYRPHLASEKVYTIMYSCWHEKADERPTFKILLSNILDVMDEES
Summary of the method: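 Z'-LYTE FRET assay with Tyr 01 peptide in 50 mM HEPES pH 7.5, 10 mM MgCl2, 1 mM EGTA, 0.01% BRIJ-35. Compounds in 1% DMSO were tested as 10-point, 3-fold titrations.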

H1975 tumor xenografts = test: Inhibition of tumor growth in H1975 xenograft model; type: in vivo, BALB/c female nude mice; conditions: Table 7 study, 60 mg/kg, Oral, QD x 14; for Tumor Volume Pre-treatment: baseline before treatment
Description: H1975 cells were implanted in BALB/c female nude mice and grown as tumor xenografts. When tumors achieved 120-200 mm^3, mice were assigned into treatment and control groups using randomized block design based upon their tumor volumes. Each group contained 6 tumor-bearing mice. Tumors were measured twice weekly in two dimensions using a caliper, and the tumor volume was calculated from two-dimensional measurements using the equation V=0.5×a×b^2 where a and b are the long and short diameters of the tumor, respectively. Relative tumor volume (RTV) was defined as TVt/TVi, the ratio of the volume on a given day (TVt) and the volume at the start of treatment (TVi). Relative tumor growth rate (T/C) was defined as RTVT/RTVC, the ratio of relative tumor volume of treatment group (RTVT) and relative tumor volume of control group (RTVC) on a given day.

FGFR1 = FGFR1 (Homo sapiens (Human), UniProt P11362); test: Z'-LYTE kinase inhibition assay, FGFR1; type: biochemical; conditions: compound at 0.041 μM; read-out: % inhibition against FGFR1
Chain of FGFR1 (P11362 22-822): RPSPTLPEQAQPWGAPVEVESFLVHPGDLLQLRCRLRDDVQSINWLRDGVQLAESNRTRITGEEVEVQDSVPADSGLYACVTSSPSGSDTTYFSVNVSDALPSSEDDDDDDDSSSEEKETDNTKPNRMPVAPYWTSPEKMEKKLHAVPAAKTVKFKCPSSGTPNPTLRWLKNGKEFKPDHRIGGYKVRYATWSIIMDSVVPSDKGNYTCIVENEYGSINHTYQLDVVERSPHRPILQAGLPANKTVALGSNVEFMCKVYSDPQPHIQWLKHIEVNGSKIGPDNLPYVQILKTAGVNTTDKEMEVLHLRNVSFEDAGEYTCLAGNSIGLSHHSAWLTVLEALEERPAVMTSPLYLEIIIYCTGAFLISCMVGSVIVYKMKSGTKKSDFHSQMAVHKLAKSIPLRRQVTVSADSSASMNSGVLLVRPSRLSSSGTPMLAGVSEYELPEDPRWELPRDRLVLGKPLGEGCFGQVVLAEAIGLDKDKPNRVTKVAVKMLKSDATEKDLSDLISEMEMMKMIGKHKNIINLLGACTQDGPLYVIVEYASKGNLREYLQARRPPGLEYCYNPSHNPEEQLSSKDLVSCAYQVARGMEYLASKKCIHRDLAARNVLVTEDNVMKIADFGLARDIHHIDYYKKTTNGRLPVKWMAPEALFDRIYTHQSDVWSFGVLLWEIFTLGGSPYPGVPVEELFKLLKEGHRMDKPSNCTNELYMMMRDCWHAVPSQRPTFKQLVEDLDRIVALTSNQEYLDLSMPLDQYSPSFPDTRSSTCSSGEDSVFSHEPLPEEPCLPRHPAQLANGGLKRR
Description: Inhibitory activities of compounds against BTK, EGFR and EGFR mutants (EGFR L858R, EGFR T790M, EGFR L858R/T790M), FGFR1, FGFR2, JAK2, JAK3 and KDR were measured by Invitrogen using Z'-LYTE® Method as briefly described in the following.
Test Compounds are screened in 1% DMSO (final) in the well. For 10 point titrations, 3-fold serial dilutions are conducted from the starting concentration. All ATP Solutions are diluted to a 4× working concentration in Kinase Buffer (50 mM HEPES pH 7.5, 0.01% BRIJ-35, 10 mM MgCl2, 1 mM EGTA). Peptide/Kinase Mixtures are diluted to a 2× working concentration in the appropriate Kinase Buffers as described below.
(v) Peptide/Kinase Mixtures for Measurement of FGFR1:
The 2×FGFR1/Tyr 04 mixture is prepared in 50 mM HEPES pH 7.5, 0.01% BRIJ-35, 10 mM MgCl2, 4 mM MnCl2, 1 mM EGTA, 2 mM DTT. The final 10 μL Kinase Reaction consists of 0.41-3.5 ng FGFR1 and 2 μM Tyr 04 in 50 mM HEPES pH 7.5, 0.01% BRIJ-35, 10 mM MgCl2, 2 mM MnCl2, 1 mM EGTA, 1 mM DTT. After the 1 hour Kinase Reaction incubation, 5 μL of a 1:64 dilution of Development Reagent B is added.
Reaction starts by 30-second shaking of mixture consisting of 2.5 μL 4× test compound, […] 2× kinase reaction mixture and 2.5 μL 4×ATP Solution on Bar-coded Corning, low volume NBS, black 384-well plate (Corning Cat. #3676). Then the mixture is incubated for 60-minute at room temperature for the kinase reaction, followed by addition of 5 μL of a 1:1024 dilution of development reagent A and 30-second plate shake. The mixture is then incubated for another 60-minute at room temperature for development reaction. Finally fluorescence is read by plate reader.
To determine IC50 of a compound against EGFR, EGFR mutant and other kinases, a series of concentrations of the compound were tested for the inhibition. […] The scale utilized in Table 4 is as follows: +++ less than 100 nM, ++ 100-500 nM and + greater than 500 nM.

Row | Structure (SMILES) | IC50 (EGFR (ErbB1) T790M L858R) [nM] | IC50 (H1299 cells) [nM] | inhibition at 0.041 µM (EGFR (ErbB1)) [%] | inhibition at 1 µM (EGFR (ErbB1)) [%] | IC50 (EGFR (ErbB1)) [nM] | IC50 (A431 cells) [nM] | IC50 (H1975 cells) [nM] | IC50 (HCC827 cells) [nM] | IC50 (H3255 cells) [nM] | IC50 (BTK) [nM] | T/C (relative tumor growth rate) (H1975 tumor xenografts) [%] | Tumor Volume Post-treatment (H1975 tumor xenografts) [mm3] | Tumor Volume Pre-treatment (H1975 tumor xenografts) [mm3] | inhibition at 0.0137 µM (EGFR (ErbB1) T790M L858R) [%] | inhibition at 0.041 µM (FGFR1) [%] | inhibition at 1 µM (EGFR (ErbB1) T790M L858R) [%]
1 | C=CC(=O)Nc1cccc(-c2c(C)ccc3cnc(Nc4ccc(N5CCN(C)CC5)cc4)nc23)c1 [Example C034, N-(3-(7-methyl-2-((4-(4-methylpiperazin-1-yl)phenyl)amino)quinazolin-8-yl)phenyl)acrylamide] | < 100 | > 500 | > 50 | > 50 | < 100 | > 500 | < 100 | < 100 | – | – | – | – | – | – | – | –
2 | C=CC(=O)Nc1cncc(-c2cccc3cnc(Nc4ccc(N5CCN(C(C)=O)CC5)cc4)nc23)c1 [Example C039, N-(5-(2-((4-(4-acetylpiperazin-1-yl)phenyl)amino)quinazolin-8-yl)pyridin-3-yl)acrylamide] | – | > 500 | – | – | – | – | 100 to 500 | < 100 | – | – | – | – | – | – | – | –
3 | C=CC(=O)Nc1cccc(-c2cccc3cnc(Nc4ccc(N5CCN(CCO)CC5)c(F)c4F)nc23)c1 [Example C151, N-(3-(2-((2,3-difluoro-4-(4-(2-hydroxyethyl)piperazin-1-yl)phenyl)amino)quinazolin-8-yl)phenyl)acrylamide] | < 100 | – | < 50 | – | < 100 | 100 to 500 | < 100 | < 100 | > 500 | < 100 | 28.6 | 462 | 229 | – | – | –
4 | C=CC(=O)Nc1cccc(-c2cccc3cnc(Nc4cnc(N5CCN(C)CC5)nc4)nc23)c1 [Example C046, N-(3-(2-((2-(4-methylpiperazin-1-yl)pyrimidin-5-yl)amino)quinazolin-8-yl)phenyl)acrylamide] | – | > 500 | > 50 | – | – | > 500 | < 100 | – | – | – | – | – | – | > 50 | – | –
5 | C=CC(=O)Nc1cccc(-c2cccc3cnc(Nc4ccc(N5CCN(C)CC5)c(OC)c4)nc23)c1 [Example C075, N-(3-(2-((3-methoxy-4-(4-methylpiperazin-1-yl)phenyl)amino)quinazolin-8-yl)phenyl)acrylamide] | < 100 | – | > 50 | – | – | 100 to 500 | < 100 | – | – | – | – | – | – | > 50 | > 50 | –
6 | Clc1cccc(-c2cccc3cnc(Nc4ccc(N5CCNCC5)cc4)nc23)c1 [Example C025, 8-(3-chlorophenyl)-N-(4-(piperazin-1-yl)phenyl)quinazolin-2-amine] | – | – | – | – | – | – | > 500 | > 500 | – | – | – | – | – | – | > 50 | > 50
7 | C=CC(=O)Nc1cccc(-c2cccc3cnc(Nc4ccc(N5CCN(C)CC5)c(F)c4F)nc23)c1 [Example C156, N-(3-(2-((2,3-difluoro-4-(4-methylpiperazin-1-yl)phenyl)amino)quinazolin-8-yl)phenyl)acrylamide] | < 100 | – | – | – | < 100 | 100 to 500 | < 100 | < 100 | > 500 | – | 36.8 | 594 | 232 | – | – | –
8 | Fc1cccc(-c2cccc3cnc(Nc4ccc(N5CCNCC5)cc4)nc23)c1 [Example C027, 8-(3-fluorophenyl)-N-(4-(piperazin-1-yl)phenyl)quinazolin-2-amine] | – | – | – | – | – | – | > 500 | 100 to 500 | – | – | – | – | – | – | > 50 | > 50
9 | CCC(=O)Nc1cccc(-c2cccc3cnc(Nc4ccc(N5CCN(C)CC5)cc4)nc23)c1 [Example C020, N-(3-(2-((4-(4-methylpiperazin-1-yl)phenyl)amino)quinazolin-8-yl)phenyl)propionamide] | – | – | – | – | – | – | > 500 | > 500 | – | – | – | – | – | – | > 50 | > 50
10 | C=CC(=O)Nc1cccc(-c2c(C)ccc3cnc(Nc4ccc(N5CCN(C(C)=O)CC5)cc4)nc23)c1 [Example C035, N-(3-(2-((4-(4-acetylpiperazin-1-yl)phenyl)amino)-7-methylquinazolin-8-yl)phenyl)acrylamide] | – | > 500 | – | – | – | > 500 | < 100 | < 100 | – | – | – | – | – | – | – | –
11 | C=CC(=O)Nc1cccc(-c2c(F)ccc3cnc(Nc4ccc(N5CCN(CCF)CC5)cc4)nc23)c1 [Example C088, N-(3-(7-fluoro-2-((4-(4-(2-fluoroethyl)piperazin-1-yl)phenyl)amino)quinazolin-8-yl)phenyl)acrylamide] | < 100 | > 500 | > 50 | – | – | > 500 | < 100 | – | > 500 | – | – | – | – | > 50 | – | –
12 | Fc1ccccc1-c1cccc2cnc(Nc3ccc(N4CCNCC4)cc3)nc12 [Example C031, 8-(2-fluorophenyl)-N-(4-(piperazin-1-yl)phenyl)quinazolin-2-amine] | – | – | – | > 50 | – | – | > 500 | > 500 | – | – | – | – | – | – | > 50 | > 50
13 | C=CC(=O)Nc1cccc(-c2cccc3cnc(Nc4ccc(N5CCN(CCO)CC5)cc4F)nc23)c1 [Example C147, N-(3-(2-((2-fluoro-4-(4-(2-hydroxyethyl)piperazin-1-yl)phenyl)amino)quinazolin-8-yl)phenyl)acrylamide] | < 100 | – | < 50 | – | < 100 | 100 to 500 | < 100 | < 100 | > 500 | < 100 | 55.7 | 898 | 240 | – | – | –
14 | C=CC(=O)Nc1cccc(-c2cccc3cnc(Nc4ccc(N5CCN(C(C)=O)CC5)cc4)nc23)c1Cl [Example C051, N-(3-(2-((4-(4-acetylpiperazin-1-yl)phenyl)amino)quinazolin-8-yl)-2-chlorophenyl)acrylamide] | – | – | < 50 | – | – | > 500 | 100 to 500 | – | – | – | – | – | – | > 50 | < 50 | –
